Consider 18 compounds from patent US20120122843A1, “Compounds and Their Use for Treatment of Amyloid Beta-Related Diseases” (ASTRAZENECA AB, priority 2010, published 2012).

Molecules are shown by their SMILES.

Experiment [1] concerns Notch. Put plainly: Release and translocation of Notch intracellular domain into the nucleus, HEK/AENotch cells (NICD immunostaining, ImageXpress). Type of experiment: cell-based, Human. The following applies: 3 μM Lactacystin, 4-6 h incubation, nucleus/cytosol NICD fluorescence ratio. How it is done: The level of activity of the compounds on release and translocation of Notch intracellular domain into the cell nucleus was tested using the following method:
Compounds were diluted in 100% DMSO and stored at […] prior to use. Human Embryonic Kidney cell line overexpressing Notchl-E-human-myc construct (referred to as HEK/AENotch) were cultured in T75 cm^2 or T225 cm^2 cell culture flasks using Dulbecco's Modified Eagles medium (DMEM) supplemented with […] glucose, Na-pyruvate and GlutaMAX with 10% FBS, 100 U/ml penicillin-streptomycin (PEST) respectively, 1× non-essential amino acids (NEAA), […] Hepes and 100 μg/ml Hygromycin. Cells at about 80% confluence were washed with PBS, detached from the flask bottom using 1× Trypsin/EDTA diluted in PBS, re-suspended in cell media and plated in 384-well plates at about 10000 cells/well, in 25 μL cell media. Optionally, cryo-preserved cells (frozen and stored at −140° C. in 90% cell media and 10% DMSO) were thawed, washed and plated as above. Next the cells were incubated for 15-24 h at 37° C. and 5% CO2, after which cell medium was replaced with fresh medium containing 3 μM Lactacystin and test compound diluted ×200 from prepared compound plate giving 0.5% final DMSO concentration, and the highest compound concentration typically 25 μM. Cells were then incubated 4-6 h with test compound before being fixed, washed and immunostained with NICD antibody (rabbit Notch 1 (C-20)). Image acquisition of cytosolic/membrane and nuclear fluorescence as well as subsequent analysis of the nucleus and cytosolic fluorescence ratio was carried out using ImageXpress. Potential cytotoxic effects of the compounds were usually assayed by analysis of nucleus area or cell number.

Experiment [2] has as its system Aβ42. Kind of experiment: Aβ42 release from HEK cells stably expressing APPswe (MSD electrochemiluminescence). It is filed as cell-based, Human. The following applies: 4-6 h incubation with test compound, Aβ42 secreted to cell medium. How it is done: The level of activity of the compounds on Aβ formation was tested using the following method:
Compounds were diluted in 100% DMSO and stored at […] prior to use. Human Embryonic Kidney (HEK) cell line stably expressing APP with the Swedish mutation (APPswe) were cultured using Dulbecco's Modified Eagles medium (DMEM) supplied with […] glucose, Na-pyruvate and GlutaMAX with 10% FBS, 100 U/ml penicillin-streptomycin (PEST) respectively, 1× non-essential amino acids (NEAA), […] Hepes, 100 μg/ml Zeocine. Cells at about 80% confluence were washed with PBS, detached from culture flasks using 1× Trypsin/EDTA diluted in PBS, re-suspended in cell media and plated in 384-well poly-d-lysine coated cell culture plates at about 10000-15000 cells/well, in 25 μL cell media. Optionally, cryo-preserved cells (frozen and stored at −140° C. in 90% cell media and 10% DMSO) were thawed, washed and plated as above. Next the cells were incubated for 15-24 h at 37° C. and 5% CO2, after which cell medium was changed. Fresh medium containing test compound diluted ×200 from prepared compound plate was added to the cells before further incubation for 4-6 hours at 37° C. and 5% CO2. After incubation with test compound the amount of Aβ peptides, including Aβ42, Aβ40, Aβ39, Aβ38 and Aβ37, as well as total Aβ levels, secreted to cell medium was analyzed using the electrochemiluminescence assay technology from Meso Scale Discovery (MSD), in combination with specific antibodies raised against the different Aβ peptides. Aβ42, Aβ40 and Aβ38 antibodies were purchased from MSD and Aβ37 and Aβ39 were made in house. Total Aβ was measured using a combination of 6E10 and 4G8 anti Aβ antibodies from MSD. Potential cytotoxic effects of the compounds were usually assayed by measuring the ATP content (ViaLight) from cell lysate.

The mark [3] stands for this setting: Homo sapiens, HEK293, HEK cells expressing APPswe.

The IC50 is the midpoint of a concentration-inhibition curve. As to `COc1nc(Nc2ccc3c(n2)OC(C2CC2)CN(C)C3C)ccc1-c1cnn(C)c1` (single isomer, unassigned) [Example 17, 2-Cyclopropyl-N-(6-methoxy-5-(1-methyl-1H-pyrazol-4-yl)pyridin-2-yl)-4,5-dimethyl-2,3,4,5-tetrahydropyrido[3,2-f][1,4]oxazepin-8-amine], the values for the IC50 in experiment [1] (Homo sapiens) and in experiment [2] (HEK cells expressing APPswe) were over 7.9 µM and 0.014 µM, respectively. Consider `COc1nc(Nc2ccc3c(n2)OC(C2CC2)CN(C)C3C)ccc1-c1cnn(C)c1` (single isomer, unassigned) [Example 18, 2-Cyclopropyl-N-(6-methoxy-5-(1-methyl-1H-pyrazol-4-yl)pyridin-2-yl)-4,5-dimethyl-2,3,4,5-tetrahydropyrido[3,2-f][1,4]oxazepin-8-amine], for which the concentration for half-maximal inhibition (IC50) was over 7.9 µM in experiment [1] and 0.037 µM in experiment [2] (HEK cells expressing APPswe). For the compound `COc1nc(Nc2ccc3c(n2)OC(C2CC2)CN(C)C3C)ccc1-c1cnn(C)c1` (single isomer, unassigned) [Example 19, 2-Cyclopropyl-N-(6-methoxy-5-(1-methyl-1H-pyrazol-4-yl)pyridin-2-yl)-4,5-dimethyl-2,3,4,5-tetrahydropyrido[3,2-f][1,4]oxazepin-8-amine], the IC50 in experiment [2] (HEK cells expressing APPswe) turned out to be 0.124 µM.

`COc1nc(Nc2ccc3c(n2)OC(C2CC2)CN(C)C3C)ccc1-c1cnn(C)c1` (single isomer, unassigned) [Example 20, 2-Cyclopropyl-N-(6-methoxy-5-(1-methyl-1H-pyrazol-4-yl)pyridin-2-yl)-4,5-dimethyl-2,3,4,5-tetrahydropyrido[3,2-f][1,4]oxazepin-8-amine]: the values for the half-maximal inhibitory concentration (IC50) in experiment [1] and in experiment [2] (HEK cells expressing APPswe) were over 7.9 µM and 0.091 µM, respectively.

For `COc1nc(Nc2cc(C)c3c(n2)OC(c2nc(C)cs2)CN(C)C3)ccc1-c1cnn(C)c1` (single isomer, unassigned) [Example 21, N-(6-Methoxy-5-(1-methyl-1H-pyrazol-4-yl)pyridin-2-yl)-4,6-dimethyl-2-(4-methylthiazol-2-yl)-2,3,4,5-tetrahydropyrido[3,2-f][1,4]oxazepin-8-amine], the half-inhibitory concentration (IC50) in experiment [2] (HEK cells expressing APPswe) worked out at 0.179 µM.

Turning to `COc1nc(Nc2cc(C)c3c(n2)OC(c2nc(C)cs2)CN(C)C3)ccc1-c1cnn(C)c1` (single isomer, unassigned) [Example 22, N-(6-Methoxy-5-(1-methyl-1H-pyrazol-4-yl)pyridin-2-yl)-4,6-dimethyl-2-(4-methylthiazol-2-yl)-2,3,4,5-tetrahydropyrido[3,2-f][1,4]oxazepin-8-amine], the results for the IC50 in experiment [1] (Homo sapiens) and in experiment [2] (HEK cells expressing APPswe) were 1.68 µM and 0.01 µM, respectively.

`COc1nc(Nc2cc(C)c3c(n2)OC(C2CCCO2)CN(C)C3)ccc1-c1cnn(C)c1` (single isomer, unassigned) [Example 25, N-(6-Methoxy-5-(1-methyl-1H-pyrazol-4-yl)pyridin-2-yl)-4,6-dimethyl-2-(tetrahydrofuran-2-yl)-2,3,4,5-tetrahydropyrido[3,2-f][1,4]oxazepin-8-amine]: the IC50 in experiment [1] (Homo sapiens) was over 7.9 µM; in experiment [2] (setting [3]), 0.073 µM.

With `COc1nc(Nc2cc(C)c3c(n2)OC(C2CCCO2)CN(C)C3)ccc1-c1cnn(C)c1` (single isomer, unassigned) [Example 26, N-(6-Methoxy-5-(1-methyl-1H-pyrazol-4-yl)pyridin-2-yl)-4,6-dimethyl-2-(tetrahydrofuran-2-yl)-2,3,4,5-tetrahydropyrido[3,2-f][1,4]oxazepin-8-amine], the values for the half-inhibitory concentration (IC50) in experiment [1] and in experiment [2] (HEK cells expressing APPswe) were over 7.9 µM and 0.056 µM, respectively.

For `COc1nc(Nc2ccc3c(n2)OC(c2nc(C)cs2)C(C)N(C)C3)ccc1-c1cnn(C)c1` (single isomer, unassigned) [Example 29, N-(6-Methoxy-5-(1-methyl-1H-pyrazol-4-yl)pyridin-2-yl)-3,4-dimethyl-2-(4-methylthiazol-2-yl)-2,3,4,5-tetrahydropyrido[3,2-f][1,4]oxazepin-8-amine], the IC50 in experiment [1] was 5 µM; in experiment [2] (HEK cells expressing APPswe), 0.068 µM. On the same counts, the results for `COc1nc(Nc2ccc3c(n2)OC(c2nc(C)cs2)C(C)N(C)C3)ccc1-c1cnn(C)c1` (single isomer, unassigned) [Example 30, N-(6-Methoxy-5-(1-methyl-1H-pyrazol-4-yl)pyridin-2-yl)-3,4-dimethyl-2-(4-methylthiazol-2-yl)-2,3,4,5-tetrahydropyrido[3,2-f][1,4]oxazepin-8-amine] are over 25 µM and 0.007 µM. For `COc1nc(Nc2ccc3c(n2)OC(CC(F)(F)F)CN(C)C3)ccc1-c1ccc(=O)n(C)c1` (single isomer, unassigned) [Example 43, 5-(2-Methoxy-6-(4-methyl-2-(2,2,2-trifluoroethyl)-2,3,4,5-tetrahydropyrido[3,2-f][1,4]oxazepin-8-ylamino)pyridin-3-yl)-1-methylpyridin-2(1H)-one], the IC50 in experiment [2] (setting [3]) amounted to 0.493 µM. Consider `COc1nc(Nc2ccc3c(n2)OC(CC(F)(F)F)CN(C)C3)ccc1-c1ccc(=O)n(C)c1` (single isomer, unassigned) [Example 44, 5-(2-Methoxy-6-(4-methyl-2-(2,2,2-trifluoroethyl)-2,3,4,5-tetrahydropyrido[3,2-f][1,4]oxazepin-8-ylamino)pyridin-3-yl)-1-methylpyridin-2(1H)-one], for which, in experiment [2] (HEK cells expressing APPswe), the IC50 came out at 0.374 µM. As for `COc1nc(Nc2ccc3c(n2)OC(CC(F)(F)F)CN(C)C3)ccc1-c1cnc(C)o1` (single isomer, unassigned) [Example 63, N-[6-Methoxy-5-(2-methyloxazol-5-yl)-2-pyridyl]-4-methyl-2-(2,2,2-trifluoroethyl)-3,5-dihydro-2H-pyrido[3,2-f][1,4]oxazepin-8-amine], the 50% inhibitory concentration (IC50) in experiment [2] (setting [3]) is 0.003 µM. Regarding `COc1nc(Nc2ccc3c(n2)OC(CC(F)(F)F)CN(C)C3)ccc1-c1cnc(C)o1` (single isomer, unassigned) [Example 64, N-[6-Methoxy-5-(2-methyloxazol-5-yl)-2-pyridyl]-4-methyl-2-(2,2,2-trifluoroethyl)-3,5-dihydro-2H-pyrido[3,2-f][1,4]oxazepin-8-amine], the half-maximal inhibitory concentration (IC50) in experiment [2] (HEK cells expressing APPswe) was 0.004 µM. Still for that read-out and setting: to `COc1nc(Nc2ccc3c(n2)OC(c2nc(C)cs2)CN(C)C3)ccc1-c1cnn(C)c1` (single isomer, unassigned; (+)) [Example 10, (+)-N-(6-Methoxy-5-(1-methyl-1H-pyrazol-4-yl)pyridin-2-yl)-4-methyl-2-(4-methylthiazol-2-yl)-2,3,4,5-tetrahydropyrido[3,2-f][1,4]oxazepin-8-amine] belongs 0.226 µM. As for `CN1Cc2ccc(Nc3ccc(-c4cnn(C)c4)cn3)nc2O[C@H](c2ccccc2)C1` [Example 15, (R)-4-Methyl-N-(5-(1-methyl-1H-pyrazol-4-yl)pyridin-2-yl)-2-phenyl-2,3,4,5-tetrahydropyrido[3,2-f][1,4]oxazepin-8-amine], the IC50 in experiment [2] (setting [3]) is 0.137 µM. In the case of `COc1nc(Nc2ccc3c(n2)OC(c2ncccc2C)CN(C)C3)ccc1-c1cnn(C)c1` (centres unmarked) [Example 16, N-(6-Methoxy-5-(1-methyl-1H-pyrazol-4-yl)pyridin-2-yl)-4-methyl-2-(3-methylpyridin-2-yl)-2,3,4,5-tetrahydropyrido[3,2-f][1,4]oxazepin-8-amine], the IC50 in experiment [2] (setting [3]) amounted to 0.305 µM. On the same count and under the same terms, to `COc1nc(Nc2ccc3c(n2)O[C@H](c2ccccc2)CN(C)C3)ccc1-c1ccc(=O)n(C)c1` [Example 45, (R)-5-(2-Methoxy-6-(4-methyl-2-phenyl-2,3,4,5-tetrahydropyrido[3,2-f][1,4]oxazepin-8-ylamino)pyridin-3-yl)-1-methylpyridin-2(1H)-one] belongs 0.038 µM.
